Measured values: patent publication US20250288570A1, “TREATMENT OF NEUROLOGICAL DISORDERS” (Praxis Precision Medicines, Inc., priority 2022, published 2025)

Legend:
[1] = test system: scPTZ-induced seizures in CD-1 mice; experiment: Subcutaneous pentylenetetrazole (scPTZ) induced seizure test; assay type: in vivo, mouse
Method: The subcutaneous pentylenetetrazole (scPTZ) test is a validated model for evaluating the anti-seizure potential of compounds. The positive control valproate is an approved anti-seizure medicine (ASM). This study evaluated the efficacy of Compound 1 to attenuate scPTZ-induced seizures in wildtype CD-1 mice. Doses of Compound 1 used were 1 mg/kg, 3 mg/kg, 6 mg/kg and 10 mg/kg administered orally. Valproate (600 mg/kg, administered intraperitoneally) was used as a positive control as it has a broad spectrum of anticonvulsant activity.
Male CD-1 mice (Charles River Laboratories, St. Constant, Quebec, Canada) were used for the study. Body weights at the time the experiment was carried out were between 27 and 39 grams. The mice were group-housed in polycarbonate cages according to standard operating procedures. Animals were maintained on a 12 hour light/12 hour dark cycle, with all experimental activities occurring during the light phase. Food and water were available ad libitum. […]
Immediately prior to the administration of PTZ, a brief neurological assessment was performed. Each animal was visually assessed and received a score from 0 to 3 according to the following scoring system: neurological score of 0 corresponds to a normal status; neurological score of 1 corresponds to a modest decrease in spontaneous activity; neurological score of 2 corresponds to a marked decrease in spontaneous activity; and neurological score of 3 corresponds to loss of righting reflex.
PTZ (85 mg/kg, 10 mL/kg) was administered as a subcutaneous (s.c.) injection. […] The latency to generalized clonic seizure was recorded. Seizures were also scored using a seizure scale. Mice were scored with the following stages: 0) no seizure activity, 1) myoclonic jerks with “flat body posture”, 2) generalized clonus with loss of posture lasting ˜2 s, 3) generalized clonus with loss of posture lasting ˜10 s or 4) tonic hindlimb extension. Seizure scores were used as a qualitative measure to assess seizure incidence and were not used as a quantitative measure of pharmacological activity. […]

[2] = test system: locomotor activity of male CD-1 mice; experiment: Spontaneous locomotor activity (sLMA) test, Example 8; assay type: in vivo, mouse
Method: The spontaneous locomotor activity (sLMA) test is a validated model for evaluating the potential effects of a compound on motor function. This study evaluated the effect of Compound 1 on locomotor activity of male CD-1 mice. Doses of Compound 1 used were 3 mg/kg, 5.6 mg/kg, 10 mg/kg and 20 mg/kg administered orally (p.o.).
Male CD-1 mice (Vital River, Beijing, China) approximately 6 weeks old were used for the study. Body weights were between 25 g and 35 g at the time of experiment.
Treatment was conducted using Compound 1 and 35% 2-hydroxypropyl-β-cyclodextrin (35% HPBCD, used as a negative control). Compound 1 stock solution was prepared fresh each experiment day in 35% HPBCD and protected from light. The stock solution was diluted with vehicle for lower doses.
The spontaneous locomotor activity (sLMA) test for each study was carried out over three days, with mice from each treatment group tested each day. The treatment groups included mice dosed with vehicle (35% HPBCD) and with Compound 1 at the dose of 3 mg/kg, 5.6 mg/kg, 10 mg/kg and 20 mg/kg. Mice were randomly assigned into one of the treatment groups.
A single dose of Compound 1 (3 mg/kg, 5.6 mg/kg, 10 mg/kg and 20 mg/kg) or vehicle (35% HPBCD) was administered to mice via oral gavage 30 minutes prior to testing. Immediately prior to conducting the sLMA test, a brief neurological assessment was performed. Each animal was visually assessed for sedation and ataxia.
Activity was recorded by overhead cameras and was analyzed offline. Video tracking analysis software was used to determine total distance travelled in millimeters. Distance travelled was also calculated in 5-minute bins.
All statistical analyses were conducted using GraphPad Prism 9.3. Means were combined and standard error was calculated using the Satterthwaite Approximation to combined standard deviations. […] TD50 and TC50 values were calculated from these fit curves.

## CCOC(F)(F)c1nnc2ccc(-c3cnc(OCC(F)(F)F)c(F)c3)cn12 [Compound 1]
[1]; 10 mg/kg
  spontaneous activity (in words): modest reduction in spontaneous activity was observed in a single mouse
[1]; 1-10 mg/kg p.o.
  protection in PTZ acute seizure model (in words): protected from generalized clonus
[1]; dose range tested
  neurological scores (in words): Neurological scores for all but one mouse treated with Compound 1 were normal
[2]; 3 mg/kg and 5.6 mg/kg
  sedation or ataxia (in words): No sedation or ataxia was observed
[2]; 10 mg/kg
  mice with sedation and/or ataxia: five
[2]; 20 mg/kg
  mice with sedation and/or ataxia: eight
[2]; p.o., distance travelled
  sLMA TD50: 10.4 mg/kg
